We go through 13 molecules from ChEMBL document CHEMBL1201862, “PubChem BioAssay data set” (2004).

Among the test systems are SW-620; OVCAR-4; NCI-H226; DMS-273; UACC-257; TK-10; SF-268; KM-20L2; HCT-116; DMS-114; MOLT-4; CCRF-CEM; SK-MEL-5; SF-539; SF-295; KM12; SR; SNB-78; PC-3; DU-145.
Assay in all cases: DTP human tumour cell line panel, 48 h

Structures are written as SMILES.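 Results reflect a 48-hour exposure of cells in 96-well plates to compound at five concentrations. GI50: concentration for 50% inhibition of growth.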 Activity calls are given as the source filed them. Rule as the data show it: active = GI50 up to about 1.1 µM and inactive = higher. Where only a bound is given, the exact number is not on record here.

On to `CCN1CCC(O)(c2ccc(Cl)c(Cl)c2)C(C(=O)c2ccc(Cl)c(Cl)c2)C1` (stereo not drawn), for which the GI50 in the assay on SW-620 is 19.5 µM (inactive); with OVCAR-4 it was 18.3 µM (inactive); in the assay on NCI-H226, 21.4 µM (inactive); in the assay with DMS-273 it was 18.1 µM (inactive); in the assay on UACC-257, 18.2 µM (inactive); in the assay with TK-10, 16.5 µM (inactive). In addition, the GI50 with SF-268 was 18.2 µM (inactive); in the assay on KM-20L2, 17.9 µM (inactive); in the assay on HCT-116 it was 18.5 µM (inactive); in the assay on DMS-114 it was 17.1 µM (inactive); in the assay with MOLT-4, 15.1 µM (inactive); in the assay with CCRF-CEM it was 17.1 µM (inactive). Also, the GI50 in the assay on SK-MEL-5 was 16.9 µM (inactive); in the assay on SF-539 it was 17.7 µM (inactive); with SF-295, 17.6 µM (inactive).

For the molecule `CN(C)CCNC(=O)c1ccc(Cl)c2c(Nc3ccc(S(N)(=O)=O)cc3)c3ccccc3nc12`, the GI50 in the assay on SW-620 was 0.173 µM (active); in the assay on OVCAR-4, 1.93 µM (inactive); with NCI-H226, 1.45 µM (inactive); in the assay on DMS-273, 1.55 µM (inactive); with KM12, 1.39 µM (inactive); with UACC-257, 3.44 µM (inactive). Besides, the GI50 in the assay with TK-10 was 2.95 µM (inactive); in the assay with SF-268, 1.41 µM (inactive); with KM-20L2 it was 2.68 µM (inactive); in the assay with HCT-116, 0.29 µM (active); in the assay on SR it was 0.151 µM (active); with DMS-114, 1.76 µM (inactive). In addition, the GI50 in the assay on MOLT-4 is 0.198 µM (active); with SK-MEL-5, 2.49 µM (inactive); in the assay on SF-539, 1.21 µM (inactive); with SF-295 it was 3.41 µM (inactive).

In the case of `C=CCC(O)c1cc(OC)ccc1OC` (stereo not drawn), the GI50 in the assay with SW-620, in the assay with OVCAR-4, with NCI-H226, in the assay on DMS-273, in the assay with KM12 and in the assay with UACC-257 was > 100 µM (inactive) each time. Also, the GI50 was > 100 µM (inactive) with TK-10; > 100 µM (inactive) in the assay on SF-268; > 100 µM (inactive) with DMS-114; > 10 µM (inactive) with MOLT-4; > 100 µM (inactive) in the assay with CCRF-CEM; > 100 µM (inactive) with SK-MEL-5. The GI50 with SF-539 and in the assay with SF-295 was > 100 µM (inactive) in each case.

`Nn1c(S)nnc1N/N=C1/C(=O)Nc2ccccc21`: the GI50 in the assay with SW-620 is 78.2 µM (inactive); in the assay with OVCAR-4, 42.1 µM (inactive); in the assay with SNB-78 it was > 100 µM (inactive); in the assay with NCI-H226, 42.1 µM (inactive); in the assay with KM12, 92.3 µM (inactive); in the assay with UACC-257 it was > 100 µM (inactive). For the same molecule, the GI50 is > 100 µM (inactive) with TK-10; 56 µM (inactive) in the assay on SF-268; > 100 µM (inactive) with KM-20L2; 53.1 µM (inactive) with HCT-116; 39.6 µM (inactive) with SR; > 100 µM (inactive) in the assay with DMS-114. The GI50 was 30.7 µM (inactive) with MOLT-4, 47.3 µM (inactive) in the assay with CCRF-CEM, 94 µM (inactive) in the assay with SF-539 and 82.8 µM (inactive) in the assay with SF-295.

`COc1cc(C(=O)C/C(CCC(=O)Nc2ccc(Cl)cc2Cl)=N/Nc2nnc(C)n2N)ccc1O`: the GI50 in the assay with SW-620, in the assay with SNB-78, in the assay with NCI-H226, in the assay on DMS-273, in the assay on KM12 and with UACC-257 was > 100 µM (inactive) throughout. The GI50 with TK-10, with SF-268, in the assay on KM-20L2, in the assay on HCT-116, in the assay with SR and in the assay with CCRF-CEM was > 100 µM (inactive) in each case. Also, the GI50 with SK-MEL-5, in the assay with SF-539 and with SF-295 was > 100 µM (inactive) each time.

As to `C=CC/N=C1\NC(=O)C(CC(=O)Nc2ccc(C)cc2)S1` (stereo not drawn), the GI50 in the assay with SW-620, in the assay with OVCAR-4, in the assay with NCI-H226, in the assay on DMS-273, with KM12 and in the assay with TK-10 was > 100 µM (inactive) throughout. Further, the GI50 in the assay with SF-268, in the assay with KM-20L2, in the assay with DMS-114, in the assay on MOLT-4, in the assay with CCRF-CEM and with SK-MEL-5 was > 100 µM (inactive) in each case. Moreover, the GI50 in the assay on SF-539 and with SF-295 was > 100 µM (inactive) each time.

For `CCOC(=O)C(C(=O)OCC)S(C)(=O)=O`, the GI50 with SW-620, in the assay on OVCAR-4, with NCI-H226, with DMS-273, with KM12 and in the assay with UACC-257 was > 100 µM (inactive) throughout. Besides, the GI50 with TK-10, with KM-20L2, in the assay on HCT-116, with SR, with DMS-114 and with MOLT-4 was > 100 µM (inactive) in each case. Moreover, the GI50 with CCRF-CEM, in the assay with SK-MEL-5, in the assay with SF-539 and with SF-295 was > 100 µM (inactive) throughout.

For `CCOC(=O)/C(=C/c1cccc(C#N)c1)N(CC)CC`, the GI50 in the assay on SW-620, in the assay with OVCAR-4, in the assay with SNB-78, in the assay on NCI-H226, with KM12 and in the assay with UACC-257 was > 100 µM (inactive) each time. The GI50 in the assay on TK-10, in the assay on SF-268, with HCT-116, in the assay with SR, in the assay on DMS-114 and in the assay with MOLT-4 was > 100 µM (inactive) each time. The GI50 with CCRF-CEM, with SK-MEL-5, in the assay with SF-539 and in the assay on SF-295 was > 100 µM (inactive) in each case.

As to `N#CC(C(=O)/C(=N/N)C(C#N)c1ccccc1)c1ccccc1` (stereo not drawn), the GI50 in the assay with SW-620, in the assay on OVCAR-4, with SNB-78, in the assay with NCI-H226, in the assay with KM12 and in the assay with UACC-257 was > 100 µM (inactive) each time. Besides, the GI50 in the assay on TK-10, with SF-268, in the assay on HCT-116, in the assay on DMS-114, in the assay with MOLT-4 and in the assay with CCRF-CEM was > 100 µM (inactive) each time. The GI50 with SK-MEL-5, in the assay on SF-539 and in the assay on SF-295 was > 100 µM (inactive) in each case.

Consider `Cc1c(C(=N)N)oc2ccccc12`, for which the GI50 in the assay on SW-620, with OVCAR-4, in the assay on SNB-78, in the assay with NCI-H226, in the assay with KM12 and in the assay on UACC-257 was > 100 µM (inactive) each time. Also, the GI50 in the assay with TK-10, with SF-268, in the assay on KM-20L2, in the assay with HCT-116, in the assay on SR and in the assay on DMS-114 was > 100 µM (inactive) in each case. Also, the GI50 with MOLT-4, in the assay on CCRF-CEM, in the assay on SK-MEL-5, in the assay with SF-539 and in the assay on SF-295 was > 100 µM (inactive) each time.

In the case of `O=c1[nH][nH]c(=O)[nH]1`, the GI50 in the assay on SW-620, with OVCAR-4, in the assay on SNB-78, in the assay on NCI-H226, in the assay on DMS-273 and in the assay on KM12 was > 100 µM (inactive) throughout. Besides, the GI50 with UACC-257, with TK-10, with SF-268, in the assay on KM-20L2, in the assay with HCT-116 and in the assay with SR was > 100 µM (inactive) in each case. For the same molecule, the GI50 in the assay with MOLT-4, with CCRF-CEM, in the assay with SK-MEL-5, in the assay with SF-539 and in the assay with SF-295 was > 100 µM (inactive) throughout.

In the case of `CC(O)c1ccc[n+](Cc2ccccc2)c1` (stereo not drawn), the GI50 in the assay with SW-620, in the assay with NCI-H226, in the assay on DMS-273, in the assay on KM12, with UACC-257 and in the assay on TK-10 was > 400 µM (inactive) in each case. The GI50 in the assay with SF-268, with KM-20L2, in the assay with HCT-116, in the assay on SR, with DMS-114 and with MOLT-4 was > 400 µM (inactive) each time. The GI50 in the assay with CCRF-CEM, with SK-MEL-5, in the assay on SF-539 and in the assay on SF-295 was > 400 µM (inactive) each time.

For the molecule `N#Cc1c(C#N)c(-c2ccccc2)n(-c2ccccc2)c1N`, the GI50 with SW-620 was > 100 µM (inactive); in the assay on OVCAR-4, 56.2 µM (inactive); in the assay on NCI-H226 it was 72.4 µM (inactive); in the assay on KM12 it was > 100 µM (inactive); in the assay on PC-3 it was > 100 µM (inactive); in the assay on UACC-257, > 100 µM (inactive). The GI50 in the assay with TK-10 was > 100 µM (inactive); with SF-268 it was 88.3 µM (inactive); in the assay on HCT-116, 5.51 µM (inactive); in the assay on SR, 73.8 µM (inactive); in the assay on MOLT-4, 60.3 µM (inactive); in the assay on CCRF-CEM, 87.5 µM (inactive). Besides, the GI50 is 85.7 µM (inactive) with DU-145, 18.9 µM (inactive) in the assay with SK-MEL-5, 20.2 µM (inactive) in the assay on SF-539 and 15.3 µM (inactive) in the assay on SF-295.

As usually defined, the GI50 is the concentration giving 50% growth inhibition.
